Assay results as given in patent US20130260025A1, “Group 2 Imidazolate Formulations for Direct Liquid Injection” (AIR PRODUCTS AND CHEMICALS, INC., priority 2012, published 2013).

Key:
[1] = Solubility of strontium imidazolate adducts in mesitylene; format: physicochemical
From the text: A fixed volume of the solution was then weighed. […] […].

[2] = Solubility of strontium imidazolate adducts in cyclooctane
Protocol: Solubility was determined by taking a weighed amount of solvent at room temperature, incrementally adding metal complex with mixing until not more could be dissolved then reweighing the resultant solution to permit the weight percentage of metal complex dissolved to be calculated. A fixed volume of the solution was then weighed. […] The moles of metal complex is then divided by the volume of weighed solution in liters to yield the molarity of the solution.

[3] = Thermogravimetric analysis (TGA)/differential scanning calorimetry (DSC); format: physicochemical
Protocol: Thermogravimetric analysis (TGA) of the complexes listed in Tables 1 and 2 were conducted whereby samples were suspended in a microbalance pan under a steady stream of nitrogen while being heated under a constant rate. Weight loss is measured as a function of temperature/time while a differential scanning calorimeter monitors exotherms (decomposition) or endotherms (phase change/melting or evaporative cooling).

[4] = saturated solution in mesitylene, room temperature
[5] = saturated solution in cyclooctane, room temperature

## CC(C)(C)c1nc(C(C)(C)C)c(C(C)(C)C)[n-]1.CC(C)(C)c1nc(C(C)(C)C)c(C(C)(C)C)[n-]1.COC(C)OC.[Sr+2] [Strontium bis(2,4,5-tri-tert-butylimidazolate)(1,1-dimethoxyethane)]
[1]; [4]
  Molarity of strontium complex: 0.13 M
  Wt % of strontium complex: 9.0 Wt %
[2]; [5]
  Molarity of strontium complex: 0.03 M
  Wt % of strontium complex: 2.1 Wt %

## CC(C)(C)c1nc(C(C)(C)C)c(C(C)(C)C)[n-]1.CC(C)(C)c1nc(C(C)(C)C)c(C(C)(C)C)[n-]1.COCC(C)OC.[Sr+2] [Strontium bis(2,4,5-tri-tert-butylimidazolate)(1,2-dimethoxypropane)]
[1]
  Molarity of strontium complex: 0.093 M
  Wt % of strontium complex: 7.3 Wt %
[2]
  Molarity of strontium complex: 0.04 M
  Wt % of strontium complex: 2.8 Wt %

## C1=CCOC1.CC(C)(C)c1nc(C(C)(C)C)c(C(C)(C)C)[n-]1.CC(C)(C)c1nc(C(C)(C)C)c(C(C)(C)C)[n-]1.[Sr+2] [Strontium bis(2,4,5-tri-tert-butylimidazolate)(2,5-dihydrofuran)]
[3]
  TGA residual mass: 8.09%
[1]
  Wt % of strontium complex: 38 Wt %
  times more soluble in mesitylene than parent complex: 9-13 times
[2]
  Molarity of strontium complex: 0.37 M
  Wt % of strontium complex: 24 Wt %
  times more soluble in cyclooctane than parent complex: 11-12 times

## CC(C)(C)c1nc(C(C)(C)C)c(C(C)(C)C)[n-]1.CC(C)(C)c1nc(C(C)(C)C)c(C(C)(C)C)[n-]1.CC1CCOC1.[Sr+2] [Strontium bis(2,4,5-tri-tert-butylimidazolate)(3-methyltetrahydrofuran)]
[1]
  Molarity of strontium complex: 0.44 M
  Wt % of strontium complex: 28.8 Wt %
  times more soluble in mesitylene than parent complex: 9-13 times
[2]
  Molarity of strontium complex: 0.05 M
  Wt % of strontium complex: 3.5 Wt %

## CC(C)(C)c1nc(C(C)(C)C)c(C(C)(C)C)[n-]1.CC(C)(C)c1nc(C(C)(C)C)c(C(C)(C)C)[n-]1.CN(C)CCN(C)C.[Sr+2] [Strontium bis(2,4,5-tri-tert-butylimidazolate)(tetramethylethlenediamine)]
[1]; [4]
  Molarity of strontium complex: 0.041 M
  Wt % of strontium complex: 3.3 Wt %
[2]; [5]
  Molarity of strontium complex: 0.02 M
  Wt % of strontium complex: 1.8 Wt %

## C1CCOC1.CC(C)(C)c1nc(C(C)(C)C)c(C(C)(C)C)[n-]1.CC(C)(C)c1nc(C(C)(C)C)c(C(C)(C)C)[n-]1.[Sr+2] [Strontium bis(2,4,5-tri-tert-butylimidazolatee)(tetrahydrofuran)]
[3]; TGA under nitrogen stream, constant heating rate, FIG. 7
  temperature at which weight loss associated with loss of tetrahydrofuran significantly begins: ≥ 100 °C
[1]; [4]
  Molarity of strontium complex: 0.6 M
  Wt % of strontium complex: 28.2 Wt %
[2]; [5]
  Molarity of strontium complex: 0.35 M
  Wt % of strontium complex: 23.6 Wt %
